Entries after “also recorded” stand apart in the source; their conditions may differ.
Columns and labels:
FVB/N mice = assay: Predator (cat) odor stress paradigm, elevated plus maze (EPM) and acoustic startle response (ASR) one week post-exposure; assay type: in vivo, mouse
Procedure: Animals: FVB/N or adult TLR9 −/− mice and strain-matched wild type C57/B6J mice were housed four per cage, with constant temperature (21±1° C.), a 12 hour light/dark cycle, free access to food and water and habituation to the housing conditions by daily handling. Experiments were performed 1 week after arrival in the animal facility.
Behavioral paradigms: Mice were placed for 10 minutes on well-soiled cat litter (in use by the cat for 2 days, sifted for stools). One week after exposure, animals were tested according to Cohen et al. (2005) Biol Psychiatry 58, 640 in the elevated plus maze (EPM) and the acoustic startle response (ASR) paradigms. The EPM is a plus-shaped platform with two opposing open arms and two opposing closed arms (surrounded by 14-cm high opaque walls on three sides). Mice were placed on the central platform and were allowed to explore the maze for 5 min. […]
Startle response was measured using two ventilated startle chambers (SR-LAB System, San Diego Instruments, San Diego, Calif.). Each Plexiglas cylinder rests on a platform inside a sound-attenuated, ventilated chamber. Startle sessions started with a 5-minute acclimatization period to a background of 68 dB white noise, followed by 30 acoustic startle stimuli (110 dB white noise of 40 ms duration with 30 s or 45 s inter-trial interval). Startle amplitude was averaged over all 30 trials, and percent habituation was calculated as the percent difference between the response to the first block of stimuli and to the last one.
Animals were randomly divided into 5 groups. The following daily treatments initiated immediately before stressor exposure and for a total of four consecutive days: saline, 50 μg/kg ODN1826, 50 μg/kg mEN101, 50 μg/kg μg mEN101 and 500 μg/kg μg ODN2088. Oligonucleotides were delivered in 300 μl 0.9% NaCl solution (Teva, Israel). A control group was exposed to fresh, unused litter. Animals were sacrificed and brains dissected on day 1 2 h after the stressor, on day 4 2 h after the last injection, or on day 7 2 h after the behavioral tests, as noted.
To challenge the hypothesis that TLR9 activation modulates psychological stress reactions, mice were exposed to the predator odor stress paradigm (Cohen, H., Zohar, J., Matar, M. A., Kaplan, Z. & Geva, A. B. (2005) Biol Psychiatry 58, 640-50) and treated them with TLR9 activating or blocking oligonucleotides and with a known stress-suppressing oligonucleotide, mEN101. One week post-exposure, treated mice were tested for avoidance behavior and hyper-arousal in the elevated plus maze (EPM) and acoustic startle response (ASR) tests, respectively (FIG. 1B). […] They also presented greater startle amplitude (F5,103=10.75, p<0.0001; p<0.0001) and decreased startle habituation ([…]; p<0.0001) than control mice (FIG. 1C). The traumatic experience conferred varied impacts in the exposed mice, ranging from drastically maladaptive behavior to generally unmodified response patterns.

RAW264.7 cells = assay: Nitric oxide (NO) production, Griess reaction; assay type: cell-based, mouse; conditions: 24 hours
Procedure: The mouse macrophage cell line RAW 264.7 (ATCC, Bethesda, Md.) was cultured in Dulbecco's modified Eagle's medium (DMEM) (Biological Industries) supplemented with 10% heat-inactivated fetal bovine serum (Biological Industries, Israel), 100 μg/ml streptomycin, 100 U/ml penicillin (Sigma) and 2 mM 1-glutamine (Biological Industries) at 37° C. in a humidified atmosphere with 5% CO2.
Determination of nitric oxide (NO) production: Nitrite concentration in the medium of cultured cells was measured as an indicator of NO production according to the Griess reaction. 1×10^5 mouse RAW264.7 cells were grown in 0.5 ml medium in 48-wells plate until 80% confluence was obtained. […] (1% sulfanilamide, 0.1% naphthylethylenediamine dihydrochloride, 5% H3PO4). Absorbance was read at 540 nm after 10 min using SPECTRAFluor Plus spectrophotometer (TECAN, UK).
To further characterize the TLR9 activating features of mEN101, mEN101 was applied to RAW264.7 cells (n=4 repeats) for 24 hours and the subsequent production of inflammatory markers was quantified. […] Addition of chloroquine (CQ), a weak base that perturbs endosomal pH and thus disturbs endosomal maturation, as well as the specific TLR9 inhibiting oligonucleotides ODN2088 and ODN TTAGGG (17), all blocked the 10 μM mEN101-driven increases in NO (p<0.015) (FIG. 2A). Thus, both gain and loss of function tests validated the nature of mEN101 as an endosomally active TLR9 activator, albeit a weak one.

5′-TCCATGACGTTCCTGACGTT-3′ [ODN1826, reference compound]
anxiety index (AI) (FVB/N mice; 50 μg/kg (high dose for ODN1826), compared to saline injected stressed mice): significantly increased AI
stress-induced anxiety scores (EPM score, startle response, habituation to startle) (FVB/N mice; 50 μg/kg i.p. daily for 4 consecutive days, tested day 7, compared to saline-treated stressed mice): increased stress-induced anxiety scores; also recorded: slightly anxiogenic behavior
concentration reaching saturation levels of NO production (RAW264.7 cells): 100 nM
lowest concentration inducing massive NO production (RAW264.7 cells): 10 nM

From US20110136897A1, “TOLL-LIKE RECEPTOR 9 AGONISTS FOR THE TREATMENT OF ANXIETY-RELATED DISORDERS AND INFLAMMATORY DISORDERS” (YISSUM RESEARCH DEVELOPMENT COMPANY OF THE HEBREW …, priority 2008, published 2011)
